Laboratory results as given in patent US20040147595A1, “Biofilm degrading or sloughing compositions and methods” (priority 2001, published 2004).

Key:
elastase = experiment: Virulence factor production: elastase (proteolytic) activity of PAO-JP2 supernatant; type: cell-based, Pseudomonas aeruginosa; conditions: PAO-JP2, 70 nm OdDHL plus 3 μg/ml and 5 μg/ml furanone 56
Method: Measurements of virulence factors. PAO-JP2 was grown in LB medium at 37° C. and shaking at 250 rpm to an OD600 nm of 1.0. The culture was divided into seven subcultures, which were added 0, 70, or 1000 nm OdDHL and 0. 3. or 5 μg/ml furanone 58. The cultures were grown for an additional 4 hours at 37° C. The proteolytic activity was measured as described by Ayora & G{overscore (o)}tz (1994). Azocasein (250 μl 2%, Sigma, St. Louis, Mo.) in 50 mM Tris/HCl and steril-filtered (Ø 0.2 μm) supernatant (150 μl) were incubated for 4 h at […] After precipitation of undigested substrate with trichloroacetic acid (1.2 ml 10%) for 15 minutes, followed by 10 minutes centrifugation at 1000 rpm, NaOH (1.4 ml 1 M) were added to the supernatant. The relative protease activity was measured as the absorbance at 440 nm (OD440 nm) of the supernatant divided by the optical density of the culture (OD600 nm ).

[1] = tested on: OHHL induced LuxR dependent expression of GFP; experiment: Quantitative furanone inhibition of the LuxR-PluxI-gfp(ASV) quorum sensor in E. coli MT102 (pJBA89); type: cell-based, Escherichia coli; conditions: gradient of furanone concentration lowering RFU to 40% versus OHHL concentration (5-100 nM)
Excerpt: To analyse the AHL antagonist activity of the halogenated furanones we tested the compounds for their ability to inhibit 3oxo-C6-HSL (OHHL) induced LuxR dependent expression of green fluorescent protein (GFP) from a Pgfp(ASV) fusion in the AHL monitor strain E. coli MT102 harbouring pJBA89 (Andersen et al., 2001).
The medium used is minimal ABT containing 0.5% glucose and 0.5% Casamino Acids. In growing cultures of the AHL monitor strain E. coli Mt102 (pJBA89) encoding […] and a P-gfp(ASV) fusion, GFP(ASV) is produced immediately upon OHHL addition specifically from the LuxR controlled P-gfp(ASV) fusion gene. The sensitivity is high (responsive to as little as 3 nm OHHL) and due to the instability built into the GFP (ASV) variant there is no background production of green fluoroscence (Andersen et al., 2001). GFP expression from the AHL monitor strain E. coli MT102 (pJBA89) and the control strain MT102 harbouring the lacl^q, Plas-gfp(ASV) IPTG inducible expression system pMH197 was quantified in the following way. Overnight cultures were diluted four fold in fresh medium and incubated for one hour at 30° C. while OHHL and furanone compounds in the required concentrations were mixed in the wells of microtiter dishes. […] When absolute values were required, green fluoroscence was measured on a fluorometer (model RF-1501; Shimadzu, Tokyo, Japan) act at an excitation wavelength of 475 nm and emission detection at 515 nm. To establish a correlation between the colour code of the ARGUS-50 captured images and green fluorescence, both colour and relative fluorescence units (RFU), were determined for a dilution series of an E. coli MT102 (pJBA89) culture which had been incubated with […]. […]
From the second plot, the furanone concentration reducing the relative activity to 40% (ID60) is determined for each OHHL concentration. […]
To enable easy comparison of the strength of the furanones, an inhibition index (IIX40) is calculated for each furanone compound. […]

[2] = tested on: P. aeruginosa protein synthesis; experiment: Constitutive Gfp-expression (pMH306) in PAO1, protein synthesis control; type: cell-based, Pseudomonas aeruginosa; conditions: PAO1 with pMH306, furanone 0 to 10 μ/ml; data not shown
Method: To determine if the furanone compound worked specifically on the las quorum sensor and not indirectly by disruption of primary metabolic functions, we followed growth as optical density of P. aeruginosa PAO1 in the presence of furanone 56. […] Further, we tested whether the furanone affected P. aeruginosa protein synthesis. The wild type P. aeruginosa PAO1 strain containing the consitutive Gfp-expression vector pMH306 was grown in the presence of furanone 56 at concentrations from 0 to 10 μ/ml. Gfp-expression (fluorescence/OD600 nm) was throughout the growth cycle unaffected by the presence of furanone compound (data not shown).

**Q.** For O=C1C=C/C(=C/Br)O1 [furanone 56], which elastase activity (elastase) is on record?
**A.** close to the uninduced level

**Q.** What about the “inhibition index (IIX40)” value [1] of the same molecule?
**A.** 0.51 mole of furanone per mmole of

**Q.** What about the “Gfp-expression (fluorescence/OD600 nm) throughout the growth cycle” value [2] of the same molecule?
**A.** unaffected
